Results reported in patent US7709613B2, “Rhenium-188 and rhenium-186 for treatment of tumors expressing a Na+/I− symporter” (priority 2002, dated 2010).
Where two headings read alike, the source gives them in different places.

What was measured:
rat thyroid NIS = molecular target: T1, rat thyroid NIS (Rattus norvegicus, UniProt Q63008); conditions: ref. [44], cited from earlier work; for Km: actively transported ions
T1 sequence (Q63008 1-618): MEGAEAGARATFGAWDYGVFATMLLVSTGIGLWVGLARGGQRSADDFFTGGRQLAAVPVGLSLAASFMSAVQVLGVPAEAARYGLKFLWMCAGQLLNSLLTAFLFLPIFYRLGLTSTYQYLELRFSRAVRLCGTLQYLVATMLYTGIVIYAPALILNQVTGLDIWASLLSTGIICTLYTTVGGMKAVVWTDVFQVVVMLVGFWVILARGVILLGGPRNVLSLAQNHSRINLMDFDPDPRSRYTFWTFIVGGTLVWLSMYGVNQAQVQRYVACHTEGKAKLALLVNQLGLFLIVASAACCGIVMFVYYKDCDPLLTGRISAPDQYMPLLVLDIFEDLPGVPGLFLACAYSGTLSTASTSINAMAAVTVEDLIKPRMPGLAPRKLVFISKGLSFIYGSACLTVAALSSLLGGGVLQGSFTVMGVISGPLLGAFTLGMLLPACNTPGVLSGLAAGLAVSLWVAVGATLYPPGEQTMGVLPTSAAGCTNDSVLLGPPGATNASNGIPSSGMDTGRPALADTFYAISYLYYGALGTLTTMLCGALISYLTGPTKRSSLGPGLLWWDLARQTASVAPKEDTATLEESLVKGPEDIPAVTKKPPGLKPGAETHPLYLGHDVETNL

[1] = test system: NIS-expressing xenografted mammary adenocarcinoma (NAFA cells); type: in vivo, nude mice
Procedure: Animal model. […] Since erbB-2 (Neu) is one of the better known human breast cancer oncogenes, a mammary tumor cell line (NAFA) induced by oncogenic Neu was used. The NAFA cell line derived from the MMTV-NeuT mouse was grown in DMEM with 10% fetal bovine serum and 1% penicillin-streptomycin. […] Female nude mice (Charles River Laboratories) 4-6 weeks old were injected SC with 10^6 NAFA cells into the left groin.
Biodistribution. […] In order to block mg-NIS in expressing organs and tumor, control animals were injected with the above mixture of isotopes combined with 2 mg NaClO4. […] The % ID/g for each organ was determined, and RIs (% ID/g in the tumor divided by the % ID/g in normal tissue) were calculated.

hNIS = molecular target: T2, hNIS (Homo sapiens, UniProt Q92911); test: Comparative 125I and 188Re uptake into hNIS-transfected and non-transfected MDCK cells; type: cell-based; conditions: for Km: hNIS-transfected MDCK cells, Lineweaver-Burk plot, 4-min initial rates, read-out: Km for influx
T2 construct: expressed in transfected cells; host or cells: MDCK (Madin-Darby canine kidney) cells, hNIS in pcDNA 3.1
T2 sequence (Q92911 1-643): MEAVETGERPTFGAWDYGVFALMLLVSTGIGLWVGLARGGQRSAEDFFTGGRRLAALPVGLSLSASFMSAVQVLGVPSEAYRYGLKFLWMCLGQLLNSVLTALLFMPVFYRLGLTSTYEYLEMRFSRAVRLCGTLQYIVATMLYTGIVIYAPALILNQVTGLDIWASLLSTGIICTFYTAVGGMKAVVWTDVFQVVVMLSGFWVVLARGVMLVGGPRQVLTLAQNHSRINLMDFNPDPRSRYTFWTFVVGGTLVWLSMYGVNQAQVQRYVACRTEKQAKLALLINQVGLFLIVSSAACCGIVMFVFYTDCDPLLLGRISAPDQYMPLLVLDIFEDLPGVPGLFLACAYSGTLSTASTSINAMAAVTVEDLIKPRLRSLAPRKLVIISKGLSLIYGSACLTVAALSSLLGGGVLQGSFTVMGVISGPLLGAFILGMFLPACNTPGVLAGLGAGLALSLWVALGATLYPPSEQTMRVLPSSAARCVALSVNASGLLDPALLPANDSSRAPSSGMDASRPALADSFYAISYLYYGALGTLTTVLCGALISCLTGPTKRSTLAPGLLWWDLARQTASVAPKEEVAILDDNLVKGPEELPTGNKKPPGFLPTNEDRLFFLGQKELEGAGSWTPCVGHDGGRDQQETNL
Procedure: Comparative ^125I and ^188Re uptake into the NIS-expressing cells. Both concentration dependence and kinetic experiments for ^125I and ^188ReO4^− in hNIS-transfected (hNIS in pcDNA 3.1 plasmid) and non-transfected MDCK (Madin-Darby canine kidney) cells were performed using the methods of Weiss et al. and Dai et al.. […] A 4-min time point was used to estimate initial rates for kinetic experiments. Saturation kinetics were analyzed by Lineweaver-Burk plot.

FRTL-5 cells = conditions: read-out: Km for ^125I^− influx; cited from earlier work
[2] = ref. [23]; cited from earlier work
[3] = Dosimetry calculations (MIRDOSE 3) for 70-kg reference adult bearing a 2 g tumor; parameters: species or system human; conditions: using S-values for the whole body
Procedure: Dosimetry. The self-doses to major organs and tumors from ^131I and ^188Re in humans were calculated using MIRDOSE 3 software (ORNL) applying S-values for a 70-kg reference adult. “S” is an absorbed dose per unit cumulated activity. S-values are tabulated in the Medical Internal Radiation Dose pamphlet #11 published by the Society of Nuclear Medicine. The following formula [26] was used for conversion of time-activity data in mice into time-activity data in humans: % ID human organ=% ID/ganimal organ·(body massaninal/body masshuman)·organ masshuman.
It should be noted that dosimetry calculations in humans were performed with the sole purpose of comparing the therapeutic efficacy and potential damage to the stomach and thyroid from ^131I and ^188Re beta-particles, thus only “self” doses were calculated. […] However, in more comprehensive dosimetry calculations organ cross-irradiation from highly penetrative ^131I gamma-rays should be taken into consideration.

[4] = Safe dose study in healthy mice, 80 days observation, thyroid and stomach histology; type: in vivo; conditions: 1.5 mCi
Procedure: To establish the safe dose of ^188ReO4^− to treat the NIS-expressing tumors in mice, healthy mice were treated with 1.5 mCi ^188ReO4^− and observed for 80 days. […] After 80 days the animals were sacrificed, their thyroids and stomachs removed and analyzed histologically. FIGS. 3A-3C present the hematoxylin and eosin stained thyroid tissue from a control mouse, a mouse treated with 1.5 mCi ^188ReO4^−, and a mouse treated with 50 μCi ^131I^−. FIGS. 3D-3E show the stomachs from the control mouse and the mouse treated with 1.5 mCi ^188ReO4^−, respectively.

[5] = test system: NAFA cells-xenografted tumors; test: Treatment of nude mice bearing NAFA cells-xenografted tumors; type: in vivo; conditions: 1.5 mCi followed by 2nd dose of 1.5 mCi one week later; vs untreated tumors
Procedure: Animal model. To investigate the binding of ^125I and ^188Re to NIS-expressing mammary tumors, a xenografted mammary adenocarcinoma model in nude mice was used. Since erbB-2 (Neu) is one of the better known human breast cancer oncogenes, a mammary tumor cell line (NAFA) induced by oncogenic Neu was used. The NAFA cell line derived from the MMTV-NeuT mouse was grown in DMEM with 10% fetal bovine serum and 1% penicillin-streptomycin. […] Female nude mice (Charles River Laboratories) 4-6 weeks old were injected SC with 10^6 NAFA cells into the left groin. Ten days after injection the tumors reached 0.5-0.7 cm in diameter.
When the tumors reached 0.5-0.7 cm in diameter, the animals were treated with 1.5 mCi ^188ReO4^− followed by a 2nd dose of 1.5 mCi ^188ReO4^− one week later.

NAFA-cells xenografts = test: Histological analysis for apoptosis (Apoptag Plus kit) of NAFA-cells xenografts; type: in vivo, nude mice; conditions: 2×1.5 mCi, day 35 post-treatment; vs control tumors
Source text: At the completion of the experimental treatment with ^188Re-perrhenate, the animals were sacrificed, their tumors removed, fixed in buffered formaline, cut and analyzed for apoptosis using an Apoptag Plus® kit. Briefly, 3′-OH termini of DNA fragments, which are the hallmark of apoptosis, were labeled with digoxigenin-modified nucleotides by terminal deoxynucleotidyl transferase (TdT). […] The labeled DNA was detected using an anti-digoxigenin antibody, and the detection was performed using a chromagen. As a result the apoptotic cells were stained brown. The results are shown in FIGS. 5A-5B, where apoptotic cells appear lightly stained in the black-and-white image. […] This observation is consistent with the fact that particulate ionizing radiation is known to cause cell death through both apoptotic and necrotic pathways.

[O-][Cl+2]([O-])O [ClO3^−]
Km (rat thyroid NIS): 277 µM

[O-][Cl+3]([O-])([O-])O [ClO4^−, Na perchlorate, reference compound]
Effect of co-administered blocking agent on uptake of both isotopes by NIS-expressing organs ([1]; 2 mg NaClO4 co-injected, all 3 time points): significantly decreased uptake of both isotopes by the stomach, salivary glands and thyroid

O=[N+]([O-])O [NO3^−]
Km (rat thyroid NIS): 739 µM

[O]=[Re](=[O])(=[O])[O-] [ReO4^−]
Blocking of NIS (rat thyroid NIS): potent blocking agent for NIS

[I-].[Na+] [^125I^−, sodium iodide, reference compound]
Km (hNIS): 26.1 µM | Km (FRTL-5 cells): 30 µM

[131IH] [^131I^−]
Actual dose to the thyroid, due to iodine organification [2]: 1300 rad/mCi | Whole body dose [2]: 0.71 rad/mCi

[Na+].[O]=[188Re](=[O])(=[O])[O-] [^188ReO4^−, Na perrhenate Na^188ReO4]
Concentration gradient in hNIS-transfected in comparison to non-transfected cells (hNIS; MDCK cells): 14 fold | Tumor to normal organ ratio (RI) ([1]; 20 min, blood): 0.41 | Tumor to normal organ ratio (RI) ([1]; 20 min, kidneys): 1.22 | Tumor to normal organ ratio (RI) ([1]; 20 min, liver): 1.27 | Tumor to normal organ ratio (RI) ([1]; 20 min, muscle): 8.21 | Tumor to normal organ ratio (RI) ([1]; 20 min, salivary glands): 1.46 | Tumor to normal organ ratio (RI) ([1]; 20 min, spleen): 1.39 | Tumor to normal organ ratio (RI) ([1]; 20 min, stomach): 0.10 | Tumor to normal organ ratio (RI) ([1]; 20 min, thyroid): 0.52 | Tumor to normal organ ratio (RI) ([1]; 20 min, tumor): 1.00 | Tumor to normal organ ratio (RI) ([1]; 2 hr, blood): 0.54 | Tumor to normal organ ratio (RI) ([1]; 2 hr, kidneys): 1.40 | Tumor to normal organ ratio (RI) ([1]; 2 hr, liver): 1.43 | Tumor to normal organ ratio (RI) ([1]; 2 hr, muscle): 5.22 | Tumor to normal organ ratio (RI) ([1]; 2 hr, salivary glands): 0.54 | Tumor to normal organ ratio (RI) ([1]; 2 hr, spleen): 2.99 | Tumor to normal organ ratio (RI) ([1]; 2 hr, stomach): 0.08 | Tumor to normal organ ratio (RI) ([1]; 2 hr, thyroid): 0.25 | Tumor to normal organ ratio (RI) ([1]; 2 hr, tumor): 1.00 | Tumor to normal organ ratio (RI) ([1]; 24 hr, blood): 1.45 | Tumor to normal organ ratio (RI) ([1]; 24 hr, kidneys): 3.08 | Tumor to normal organ ratio (RI) ([1]; 24 hr, liver): 8.00 | Tumor to normal organ ratio (RI) ([1]; 24 hr, muscle): 12.50 | Tumor to normal organ ratio (RI) ([1]; 24 hr, salivary glands): 2.85 | Tumor to normal organ ratio (RI) ([1]; 24 hr, spleen): 10.00 | Tumor to normal organ ratio (RI) ([1]; 24 hr, stomach): 0.17 | Tumor to normal organ ratio (RI) ([1]; 24 hr, thyroid): 2.00 | Tumor to normal organ ratio (RI) ([1]; 24 hr, tumor): 1.00 | Whole body dose relative to ^131I^− [3]: ~2 times | Damage to normal NIS-containing structures (thyroid, stomach histology) ([4]; 80 days, hematoxylin and eosin): absence of damage | Weight loss or gastrointestinal toxicity ([4]; observed for 80 days): No weight loss or other gastrointestinal toxicity | Tumor growth [5]: Tumor growth stabilization | Apoptotic cells in tumors (NAFA-cells xenografts): significantly higher number of apoptotic cells

[Na+].[O]=[Re](=[O])(=[O])[O-] [^188ReO4^−, Na perrhenate Na^188ReO4]
Km (hNIS): 12.6 µM
